From patent US20050136445A1, “Recombinant DNA vector, recombinant bio-luminescent bacterium and method for detecting bio-inhibitory substances using same” (Industrial Technology Research Institute, priority 2003, published 2005)

Each compound was assayed on recombinant luminescent bacteria, pLWY-fabG (in Serratia marcescens) and pLWY-sh1A (in Serratia marcescens) (assay: Luminosity (RLU) of recombinant bio-luminescent bacteria after mixing with test sample). Details: 200 μl bacterial liquid + 20 μl test sample, react for 15 minutes, luminosity detected for 20 sec; expressed as percentage of purified water control (100%).
Format: cell-based
Excerpt: The technique developed in this invention that allows speedy detection of bio-inhibitory substances in wastewater is based on the principle that such substance poses a negative effect on the luminescent ability of recombinant luminescent bacteria, pLWY-fabG (in Serratia marcescens) and pLWY-sh1A (in Serratia marcescens) as provided herein. The detailed process for detecting bio-inhibitory substances in wastewater using the foregoing recombinant bio-luminescent bacteria are described below: 1. Culture the constructed foregoing recombinant bio-luminescent bacteria for 18-24 hours (O.D. >2); 2. Dilute the bacterial liquid at 1:100 with fresh LB broth the next day; 3. Shake culture at 225 rpm under 30° C. for one hour; 4. Mix 200 μl of bacterial liquid with 20 μl of test sample; mix well and let them react for 15 minutes; and 5. Use luminometer Berthold Lumat LB9507 to detect luminosity for 20 sec and the results are shown in relative light unit (RLU).
To preclude environmental error, each batch of test samples must include purified water to be treated as a positive control with RLU set as 100% for a standard reference. Given that the RLU of negative control (LB broth) is 0, it was not measured. The test results of samples are expressed as a percentage of the positive control. In this test, the amount of bacterial liquid used was 200 μl and that of test sample was 20 μl. Therefore the concentration of test sample was diluted to 1/11 of the original liquid at the time of testing. The concentrations of samples shown in the table are the detected concentration.

Row | Structure (SMILES) | luminosity (RLU value) of the recombinant bio-luminescent bacterium versus concentration of the bio-inhibitory substance
1 | CC#N [acetonitrile] | the higher is the acetonitrile concentration, the lower is the RLU value
2 | Oc1ccccc1 [phenol] | the higher is the phenol concentration, the lower is the RLU value
3 | [Zn+2] [zinc ion] | the higher is the zinc ion concentration, the lower is the RLU value
